From the supplement of paper PMC13207355
Structures can show the parent of a compound that is named as a salt.

Experiments:
Settings in all cases: exposure time: 72 h
[1] = test system: E13 (patient-derived glioblastoma stem cells of classical subtype); assay: surviving fraction (nuclei count normalised to DMSO); higher = more cells surviving (less toxic)
[2] = test system: E21 (patient-derived glioblastoma stem cells of mesenchymal subtype); assay: as above
[3] = test system: E28 (patient-derived glioblastoma stem cells of classical subtype); assay: as above
[4] = test system: E31 (patient-derived glioblastoma stem cells of proneural subtype); assay: as above
[5] = test system: E34 (patient-derived glioblastoma stem cells of proneural subtype); assay: as above
[6] = test system: E57 (patient-derived glioblastoma stem cells of mesenchymal subtype); assay: as above
[7] = test system: FT3469 (normal neural stem cell line); assay: as above
[8] = test system: E13; assay: phenotypic distance (Euclidean, principal components) from DMSO controls (arbitrary units); higher = stronger morphological change
[9] = test system: E21; assay: as above
[10] = test system: E28; assay: as above
[11] = test system: E31; assay: as above
[12] = test system: E34; assay: as above
[13] = test system: E57; assay: as above
[14] = test system: FT3469; assay: as above
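For phenotypic distance (Euclidean, principal components) from DMSO controls in this document: cell Painting imaging in 384-well plates, CellProfiler features reduced to at least 20 principal components, Euclidean distance versus same-plate DMSO vehicle wells (0.1% v/v), median over six images per well.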
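For surviving fraction (nuclei count normalised to DMSO) in this document: nuclei counted by high-content imaging of Hoechst-stained cells in laminin-coated 384-well plates, relative to 0.1% DMSO vehicle wells, with staurosporine as cell-death control.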

COC(=O)Nc1nc2cc(C(=O)c3ccccc3)ccc2[nH]1 [Mebendazole]
Settings	phenotypic distance	surviving fraction
[1], 4.1 nM	–	0.79
[1], 12.3 nM	–	0.88
[1], 37 nM	–	0.816
[1], 111.1 nM	–	0.465
[1], 333.3 nM	–	0.22
[1], 1000 nM	–	0.203
[1], 3000 nM	–	0.221
[2], 4.1 nM	–	0.964
[2], 12.3 nM	–	0.942
[2], 37 nM	–	0.868
[2], 111.1 nM	–	0.707
[2], 333.3 nM	–	0.138
[2], 1000 nM	–	0.144
[2], 3000 nM	–	0.187
[3], 4.1 nM	–	1.01
[3], 12.3 nM	–	0.992
[3], 37 nM	–	0.943
[3], 111.1 nM	–	0.731
[3], 333.3 nM	–	0.444
[3], 1000 nM	–	0.288
[3], 3000 nM	–	0.426
[4], 4.1 nM	–	0.817
[4], 12.3 nM	–	0.859
[4], 37 nM	–	0.71
[4], 111.1 nM	–	0.417
[4], 333.3 nM	–	0.132
[4], 1000 nM	–	0.1
[4], 3000 nM	–	0.114
[5], 4.1 nM	–	0.922
[5], 12.3 nM	–	0.961
[5], 37 nM	–	0.917
[5], 111.1 nM	–	0.664
[5], 333.3 nM	–	0.432
[5], 1000 nM	–	0.403
[5], 3000 nM	–	0.384
[6], 4.1 nM	–	1
[6], 12.3 nM	–	1.06
[6], 37 nM	–	0.876
[6], 111.1 nM	–	0.784
[6], 333.3 nM	–	0.148
[6], 1000 nM	–	0.0727
[6], 3000 nM	–	0.092
[7], 4.1 nM	–	0.984
[7], 12.3 nM	–	1.02
[7], 37 nM	–	0.772
[7], 111.1 nM	–	0.663
[7], 333.3 nM	–	0.648
[7], 1000 nM	–	0.56
[7], 3000 nM	–	0.566
[8], 4.1 nM	1.43	–
[8], 12.3 nM	1.24	–
[8], 37 nM	2.04	–
[8], 111.1 nM	4.4	–
[8], 333.3 nM	7.15	–
[8], 1000 nM	6.93	–
[8], 3000 nM	7.2	–
[9], 4.1 nM	1.49	–
[9], 12.3 nM	1.54	–
[9], 37 nM	1.52	–
[9], 111.1 nM	2.75	–
[9], 333.3 nM	7.72	–
[9], 1000 nM	7.67	–
[9], 3000 nM	6.82	–
[10], 4.1 nM	0.755	–
[10], 12.3 nM	0.838	–
[10], 37 nM	1.05	–
[10], 111.1 nM	2.06	–
[10], 333.3 nM	3.8	–
[10], 1000 nM	4.27	–
[10], 3000 nM	4.73	–
[11], 4.1 nM	1.27	–
[11], 12.3 nM	0.909	–
[11], 37 nM	1.1	–
[11], 111.1 nM	2.77	–
[11], 333.3 nM	5.6	–
[11], 1000 nM	5.55	–
[11], 3000 nM	4.51	–
[12], 4.1 nM	0.931	–
[12], 12.3 nM	0.785	–
[12], 37 nM	1.36	–
[12], 111.1 nM	2.23	–
[12], 333.3 nM	3.56	–
[12], 1000 nM	3.98	–
[12], 3000 nM	6.31	–
[13], 4.1 nM	1.09	–
[13], 12.3 nM	0.846	–
[13], 37 nM	1.77	–
[13], 111.1 nM	2.71	–
[13], 333.3 nM	5.36	–
[13], 1000 nM	5.62	–
[13], 3000 nM	4.64	–
[14], 4.1 nM	0.995	–
[14], 12.3 nM	0.806	–
[14], 37 nM	0.927	–
[14], 111.1 nM	2.1	–
[14], 333.3 nM	3.21	–
[14], 1000 nM	3.43	–
[14], 3000 nM	3.34	–

OC(c1cc(C(F)(F)F)nc2c(C(F)(F)F)cccc12)C1CCCCN1 (centres undefined) [Mefloquine hydrochloride]
Settings	phenotypic distance	surviving fraction
[1], 4.1 nM	–	0.953
[1], 12.3 nM	–	0.908
[1], 37 nM	–	1.09
[1], 111.1 nM	–	1.03
[1], 333.3 nM	–	0.98
[1], 1000 nM	–	0.992
[1], 3000 nM	–	0.842
[2], 4.1 nM	–	1.11
[2], 12.3 nM	–	0.951
[2], 37 nM	–	0.98
[2], 111.1 nM	–	0.983
[2], 333.3 nM	–	1.07
[2], 1000 nM	–	1.05
[2], 3000 nM	–	1.07
[3], 4.1 nM	–	1.12
[3], 12.3 nM	–	1
[3], 37 nM	–	1.22
[3], 111.1 nM	–	1.14
[3], 333.3 nM	–	1.23
[3], 1000 nM	–	1.21
[3], 3000 nM	–	1.12
[4], 4.1 nM	–	1.11
[4], 12.3 nM	–	0.942
[4], 37 nM	–	1.15
[4], 111.1 nM	–	0.922
[4], 333.3 nM	–	1.11
[4], 1000 nM	–	1.06
[4], 3000 nM	–	0.997
[5], 4.1 nM	–	1.1
[5], 12.3 nM	–	0.856
[5], 37 nM	–	1.06
[5], 111.1 nM	–	0.941
[5], 333.3 nM	–	1.14
[5], 1000 nM	–	0.908
[5], 3000 nM	–	1.02
[6], 4.1 nM	–	1.05
[6], 12.3 nM	–	1.05
[6], 37 nM	–	0.93
[6], 111.1 nM	–	0.987
[6], 333.3 nM	–	1.17
[6], 1000 nM	–	0.93
[6], 3000 nM	–	0.903
[7], 4.1 nM	–	1.13
[7], 12.3 nM	–	1.13
[7], 37 nM	–	0.975
[7], 111.1 nM	–	1.2
[7], 333.3 nM	–	1.07
[7], 1000 nM	–	1.02
[7], 3000 nM	–	0.875
[8], 4.1 nM	0.361	–
[8], 12.3 nM	0.509	–
[8], 37 nM	0.5	–
[8], 111.1 nM	1.43	–
[8], 333.3 nM	0.51	–
[8], 1000 nM	0.651	–
[8], 3000 nM	0.845	–
[9], 4.1 nM	0.776	–
[9], 12.3 nM	0.568	–
[9], 37 nM	0.797	–
[9], 111.1 nM	0.488	–
[9], 333.3 nM	0.618	–
[9], 1000 nM	0.511	–
[9], 3000 nM	1.05	–
[10], 4.1 nM	0.636	–
[10], 12.3 nM	0.53	–
[10], 37 nM	0.741	–
[10], 111.1 nM	0.677	–
[10], 333.3 nM	0.764	–
[10], 1000 nM	1.07	–
[10], 3000 nM	1.8	–
[11], 4.1 nM	0.433	–
[11], 12.3 nM	0.421	–
[11], 37 nM	0.563	–
[11], 111.1 nM	0.539	–
[11], 333.3 nM	0.506	–
[11], 1000 nM	0.632	–
[11], 3000 nM	0.65	–
[12], 4.1 nM	0.892	–
[12], 12.3 nM	0.581	–
[12], 37 nM	0.73	–
[12], 111.1 nM	0.475	–
[12], 333.3 nM	0.804	–
[12], 1000 nM	0.787	–
[12], 3000 nM	0.828	–
[13], 4.1 nM	0.488	–
[13], 12.3 nM	0.813	–
[13], 37 nM	0.474	–
[13], 111.1 nM	0.652	–
[13], 333.3 nM	1.37	–
[13], 1000 nM	0.948	–
[13], 3000 nM	0.991	–
[14], 4.1 nM	0.882	–
[14], 12.3 nM	0.444	–
[14], 37 nM	0.675	–
[14], 111.1 nM	0.627	–
[14], 333.3 nM	0.598	–
[14], 1000 nM	0.423	–
[14], 3000 nM	1.16	–

S=c1[nH]cnc2nc[nH]c12 [Mercaptopurine]
Settings	phenotypic distance	surviving fraction
[1], 4.1 nM	–	0.921
[1], 12.3 nM	–	0.917
[1], 37 nM	–	0.937
[1], 111.1 nM	–	1.04
[1], 333.3 nM	–	0.899
[1], 1000 nM	–	1.07
[1], 3000 nM	–	0.933
[2], 4.1 nM	–	1.09
[2], 12.3 nM	–	1.04
[2], 37 nM	–	0.958
[2], 111.1 nM	–	1.01
[2], 333.3 nM	–	0.977
[2], 1000 nM	–	0.922
[2], 3000 nM	–	1.05
[3], 4.1 nM	–	0.929
[3], 12.3 nM	–	1.02
[3], 37 nM	–	0.893
[3], 111.1 nM	–	1.13
[3], 333.3 nM	–	0.931
[3], 1000 nM	–	0.942
[3], 3000 nM	–	0.996
[4], 4.1 nM	–	1.1
[4], 12.3 nM	–	1.04
[4], 37 nM	–	0.994
[4], 111.1 nM	–	1.08
[4], 333.3 nM	–	1
[4], 1000 nM	–	1.16
[4], 3000 nM	–	0.862
[5], 4.1 nM	–	1.04
[5], 12.3 nM	–	1.18
[5], 37 nM	–	1.17
[5], 111.1 nM	–	1.09
[5], 333.3 nM	–	0.961
[5], 1000 nM	–	1.18
[5], 3000 nM	–	0.823
[6], 4.1 nM	–	1.14
[6], 12.3 nM	–	1.06
[6], 37 nM	–	1.02
[6], 111.1 nM	–	1.03
[6], 333.3 nM	–	1.06
[6], 1000 nM	–	1.11
[6], 3000 nM	–	1.1
[7], 4.1 nM	–	1.13
[7], 12.3 nM	–	1.18
[7], 37 nM	–	1.05
[7], 111.1 nM	–	1.24
[7], 333.3 nM	–	1.1
[7], 1000 nM	–	1.09
[7], 3000 nM	–	1.18
[8], 4.1 nM	0.545	–
[8], 12.3 nM	0.627	–
[8], 37 nM	0.483	–
[8], 111.1 nM	0.814	–
[8], 333.3 nM	0.609	–
[8], 1000 nM	0.518	–
[8], 3000 nM	0.658	–
[9], 4.1 nM	0.78	–
[9], 12.3 nM	1.43	–
[9], 37 nM	0.81	–
[9], 111.1 nM	0.892	–
[9], 333.3 nM	0.78	–
[9], 1000 nM	1.02	–
[9], 3000 nM	0.813	–
[10], 4.1 nM	0.534	–
[10], 12.3 nM	1.01	–
[10], 37 nM	0.638	–
[10], 111.1 nM	0.681	–
[10], 333.3 nM	0.395	–
[10], 1000 nM	0.531	–
[10], 3000 nM	0.838	–
[11], 4.1 nM	0.771	–
[11], 12.3 nM	0.551	–
[11], 37 nM	0.636	–
[11], 111.1 nM	0.699	–
[11], 333.3 nM	0.484	–
[11], 1000 nM	0.59	–
[11], 3000 nM	0.762	–
[12], 4.1 nM	0.504	–
[12], 12.3 nM	0.959	–
[12], 37 nM	0.783	–
[12], 111.1 nM	0.796	–
[12], 333.3 nM	0.438	–
[12], 1000 nM	0.992	–
[12], 3000 nM	0.809	–
[13], 4.1 nM	0.611	–
[13], 12.3 nM	0.822	–
[13], 37 nM	1.19	–
[13], 111.1 nM	0.97	–
[13], 333.3 nM	0.524	–
[13], 1000 nM	0.658	–
[13], 3000 nM	0.893	–
[14], 4.1 nM	0.501	–
[14], 12.3 nM	0.977	–
[14], 37 nM	0.81	–
[14], 111.1 nM	1.22	–
[14], 333.3 nM	0.759	–
[14], 1000 nM	0.781	–
[14], 3000 nM	0.82	–
